Tested on: D. melanogaster trans-heterozygous mwh+/+flr3 larvae of the HB cross
Assay: SMART wing spot test, anti-mutagenicity, HB cross
Method: The somatic mutation and recombination test, or the wing spot test, using D. melanogaster was employed as an in vivo system to assess the mutagenicity and anti-mutagenicity of chrysin-ES. Two different crosses were conducted: (i) a standard cross (ST) and (ii) a high bioactivation cross (HB). The standard cross larvae were obtained from virgin female of flr3/TM3, Ser crossed with males of mwh/mwh, while the HB cross larvae expressing cytochrome P450 enzymes involved in xenobiotic biotransformation were obtained from virgin females of ORR/ORR; flr^3/In (3LR) TM3, ri p^psep l (3)89Aa bx^34e e Bd^s crossed with males of mwh/mwh. The flies were cultured at a constant temperature of 25 ± 1 °C and 60–70% RH at photoperiod 12:12 (light/dark). To evaluate the mutagenicity of chrysin and chrysin-ES, a hundred larva F1 progenies derived from the above crossing were fed with instant Drosophila medium (Formula 4-24®), Carolina, Burlington, NC, USA) containing chrysin or chrysin-ES (20–120 µg/mL). DI was used as a negative control, while 20 mM urethane (URE) was used as a positive control. The larvae were reared on each medium until pupation at 25 °C. After that, forty wings of surviving flies in each group were collected for mutant analysis. The mutant spots on the wings, including small single spots, large single spots, and twin spots, were counted. The statistical significance was calculated as previously described by Frei and Würgler.
Furthermore, the anti-mutagenicity of the samples was performed by a similar procedure as mentioned above.

[1] = NMU (sodium nitrite 36 mM: methylurea 10 mM) + 20 μg/mL

O=c1cc(-c2ccccc2)oc2cc(O)cc(O)c12 [Chrysin, 5,7-dihydroxyflavone]
Inhibition (%) (EMS 5 mM + 20 μg/mL): 25%
Inhibitory Classification (EMS 5 mM + 20 μg/mL): Weak
Mutant spots per individual (number of spots), Large Single (EMS 5 mM + 20 μg/mL): 1.63 (65)
Mutant spots per individual (number of spots), Small Single (EMS 5 mM + 20 μg/mL): 5.3 (212)
Mutant spots per individual (number of spots), Total (EMS 5 mM + 20 μg/mL): 7.80 (312)
Mutant spots per individual (number of spots), Twin (EMS 5 mM + 20 μg/mL): 0.88 (35)
Inhibition (%) (EMS 5 mM + 40 μg/mL): 31%
Inhibitory Classification (EMS 5 mM + 40 μg/mL): Weak
Mutant spots per individual (number of spots), Large Single (EMS 5 mM + 40 μg/mL): 0.78 (31)
Mutant spots per individual (number of spots), Small Single (EMS 5 mM + 40 μg/mL): 6.03 (241)
Mutant spots per individual (number of spots), Total (EMS 5 mM + 40 μg/mL): 7.13 (285)
Mutant spots per individual (number of spots), Twin (EMS 5 mM + 40 μg/mL): 0.33 (13)
Inhibition (%) (EMS 5 mM + 80 μg/mL): 60%
Inhibitory Classification (EMS 5 mM + 80 μg/mL): Moderate
Mutant spots per individual (number of spots), Large Single (EMS 5 mM + 80 μg/mL): 0.73 (29)
Mutant spots per individual (number of spots), Small Single (EMS 5 mM + 80 μg/mL): 3.23 (129)
Mutant spots per individual (number of spots), Total (EMS 5 mM + 80 μg/mL): 4.18 (167)
Mutant spots per individual (number of spots), Twin (EMS 5 mM + 80 μg/mL): 0.23 (9)
Inhibition (%) (EMS 5 mM + 120 μg/mL): 76%
Inhibitory Classification (EMS 5 mM + 120 μg/mL): Strong
Mutant spots per individual (number of spots), Large Single (EMS 5 mM + 120 μg/mL): 0.20 (8)
Mutant spots per individual (number of spots), Small Single (EMS 5 mM + 120 μg/mL): 2.20 (88)
Mutant spots per individual (number of spots), Total (EMS 5 mM + 120 μg/mL): 2.53 (101)
Mutant spots per individual (number of spots), Twin (EMS 5 mM + 120 μg/mL): 0.13 (5)
Inhibition (%) (MMC 0.05 mM + 20 μg/mL): 5%
Inhibitory Classification (MMC 0.05 mM + 20 μg/mL): Negligible
Mutant spots per individual (number of spots), Large Single (MMC 0.05 mM + 20 μg/mL): 0.85 (34)
Mutant spots per individual (number of spots), Small Single (MMC 0.05 mM + 20 μg/mL): 3.70 (148)
Mutant spots per individual (number of spots), Total (MMC 0.05 mM + 20 μg/mL): 4.65 (186)
Mutant spots per individual (number of spots), Twin (MMC 0.05 mM + 20 μg/mL): 0.10 (4)
Inhibition (%) (MMC 0.05 mM + 40 μg/mL): 60%
Mutant spots per individual (number of spots), Large Single (MMC 0.05 mM + 40 μg/mL): 0.18 (7)
Mutant spots per individual (number of spots), Small Single (MMC 0.05 mM + 40 μg/mL): 1.63 (65)
Mutant spots per individual (number of spots), Total (MMC 0.05 mM + 40 μg/mL): 1.93 (77)
Mutant spots per individual (number of spots), Twin (MMC 0.05 mM + 40 μg/mL): 0.13 (5)
Inhibition (%) (MMC 0.05 mM + 80 μg/mL): 79%
Inhibitory Classification (MMC 0.05 mM + 80 μg/mL): Strong
Mutant spots per individual (number of spots), Large Single (MMC 0.05 mM + 80 μg/mL): 0.08 (3)
Mutant spots per individual (number of spots), Small Single (MMC 0.05 mM + 80 μg/mL): 0.98 (39)
Mutant spots per individual (number of spots), Total (MMC 0.05 mM + 80 μg/mL): 1.05 (42)
Mutant spots per individual (number of spots), Twin (MMC 0.05 mM + 80 μg/mL): 0 (0)
Inhibition (%) (MMC 0.05 mM + 120 μg/mL): 88%
Inhibitory Classification (MMC 0.05 mM + 120 μg/mL): Strong
Mutant spots per individual (number of spots), Large Single (MMC 0.05 mM + 120 μg/mL): 0.03 (1)
Mutant spots per individual (number of spots), Small Single (MMC 0.05 mM + 120 μg/mL): 0.55 (22)
Mutant spots per individual (number of spots), Total (MMC 0.05 mM + 120 μg/mL): 0.58 (23)
Mutant spots per individual (number of spots), Twin (MMC 0.05 mM + 120 μg/mL): 0 (0)
Inhibition (%) [1]: 54%
Inhibitory Classification [1]: Moderate
Mutant spots per individual (number of spots), Large Single [1]: 0.09 (3)
Mutant spots per individual (number of spots), Small Single [1]: 0.78 (25)
Mutant spots per individual (number of spots), Total [1]: 0.88 (28)
Mutant spots per individual (number of spots), Twin [1]: 0 (0)
Inhibitory Classification (NMU (sodium nitrite 36 mM: methylurea 10 mM) + 20 μg/mL, listed as chrysin): moderate (41–60%)
Inhibition (%) (NMU + 40 μg/mL): 80%
Inhibitory Classification (NMU + 40 μg/mL): Strong
Mutant spots per individual (number of spots), Large Single (NMU + 40 μg/mL): 0.05 (2)
Mutant spots per individual (number of spots), Small Single (NMU + 40 μg/mL): 0.30 (12)
Mutant spots per individual (number of spots), Total (NMU + 40 μg/mL): 0.38 (15)
Mutant spots per individual (number of spots), Twin (NMU + 40 μg/mL): 0.03 (1)

Reference: publication PMC11206519, “Multi-Endpoint Toxicological Assessment of Chrysin Loaded Oil-in-Water Emulsion System in Different Biological Models” (Nanomaterials, 2024)
